Source: patent US20260295053A1, “COMPOUNDS FOR DEGRADATION AND INHIBITION OF KRAS (G12D) PROTEIN” (Shenzhen Ionova Life Science Co., Ltd., priority 2023, published 2026)

How the values were obtained:
AsPC-1 cells = assay: AsPC-1 cell proliferation assay (CellTiter Glo); assay type: cell-based; conditions: Homo sapiens, ASPC1, 144 h, 6 days
Procedure, shortened: (§1)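 Degradation: 22,000 cells/well grown to ~90% confluency, 24 h compound, fixed/permeabilised, anti-KRAS G12D + β-actin antibodies, near-IR fluorescence, DC50. Proliferation: 3,500 cells/well overnight, 6 d compound, CellTiter Glo luminescence, IC50. Dosing […]–1.5 nM final, 1:3 steps.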

KRAS (G12D) = molecular target: T1, KRAS (G12D) (Homo sapiens, UniProt P01116, G12D); assay: KRAS (G12D) cellular degradation assay in AsPC-1 cells; assay type: cell-based; conditions: 24 hours, antibody fluorescence (Odyssey CLX), DC50 half-maximal degradation concentration
T1 construct: in-cell western with KRAS G12D antibody after 24 h
Procedure, shortened: as §1

T1 sequence (P01116 1-188 isoform P01116-2 G12D): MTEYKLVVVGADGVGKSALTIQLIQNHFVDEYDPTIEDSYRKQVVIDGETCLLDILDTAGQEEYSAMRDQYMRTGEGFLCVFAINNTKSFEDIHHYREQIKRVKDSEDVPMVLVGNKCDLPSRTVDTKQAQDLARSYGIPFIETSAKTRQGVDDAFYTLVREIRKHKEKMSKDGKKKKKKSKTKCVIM

With `CO[C@@H](C)COc1nc(N2C[C@@H]3C[C@H]2CN3)c2cc(C3CC3)c(-c3c(C)c(F)cc4[nH]ncc34)c(OCc3ccc(-c4cn([C@H](C(=O)N5C[C@H](O)C[C@H]5C(=O)N[C@H](C#Cc5cccc(F)c5F)CO)C(C)C)nn4)cc3)c2n1` [Example 60, (2S,4R)-1-((2S)-2-(4-(4-(((4-((1S,4S)-2,5-diazabicyclo[2.2.1]heptan-2-yl)-6-cyclopropyl-7-(6-fluoro-5-methyl-1H-indazol-4-yl)-2-((S)-2-methoxypropoxy)quinazolin-8-yl)oxy)methyl)phenyl)-1H-1,2,3-triazol-1-yl)-3-methylbutanoyl)-N—((R)-4-(2,3-difluorophenyl)-1-hydroxybut-3-yn-2-yl)-4-hydroxypyrrolidine-2-carboxamide] the IC50 (AsPC-1 cells) was < 10 nM and the DC50 (KRAS (G12D)) was < 10 nM.
Work on `CCn1nccc1-c1ccc([C@H](CO)NC(=O)[C@@H]2C[C@@H](O)CN2C(=O)[C@H](C(C)C)n2cc(-c3ccc(COc4c(-c5c(C)c(F)cc6[nH]ncc56)c(C5CC5)cc5c(N6C7CNCC6COC7)nc(OC[C@H](C)OC)nc45)cc3)nn2)cc1` [Example 61, (2S,4R)-1-((2S)-2-(4-(4-(((4-(3-oxa-7,9-diazabicyclo[3.3.1]nonan-9-yl)-6-cyclopropyl-7-(6-fluoro-5-methyl-1H-indazol-4-yl)-2-((S)-2-methoxypropoxy)quinazolin-8-yl)oxy)methyl)phenyl)-1H-1,2,3-triazol-1-yl)-3-methylbutanoyl)-N—((R)-1-(4-(1-ethyl-1H-pyrazol-5-yl)phenyl)-2-hydroxyethyl)-4-hydroxypyrrolidine-2-carboxamide] yielded an IC50 (AsPC-1 cells) of 10 to 100 nM and a DC50 (KRAS (G12D)) of 10 to 100 nM.
With `CCn1nccc1-c1ccc([C@H](CO)NC(=O)[C@@H]2C[C@@H](O)CN2C(=O)[C@H](C(C)C)n2cc(-c3ccc(COc4c(-c5c(C)c(F)cc6[nH]ncc56)c(C5CC5)cc5c(N6C[C@@H]7C[C@H]6CN7)nc(OCC6(CC(F)F)CC6)nc45)cc3)nn2)cc1` [Example 62, (2S,4R)-1-((2S)-2-(4-(4-(((4-((1S,4S)-2,5-diazabicyclo[2.2.1]heptan-2-yl)-6-cyclopropyl-2-((1-(2,2-difluoroethyl)cyclopropyl)methoxy)-7-(6-fluoro-5-methyl-1H-indazol-4-yl)quinazolin-8-yl)oxy)methyl)phenyl)-1H-1,2,3-triazol-1-yl)-3-methylbutanoyl)-N—((R)-1-(4-(1-ethyl-1H-pyrazol-5-yl)phenyl)-2-hydroxyethyl)-4-hydroxypyrrolidine-2-carboxamide] the IC50 (AsPC-1 cells) was < 10 nM and the DC50 (KRAS (G12D)) was < 10 nM.
In the case of `Cc1ncsc1-c1ccc([C@H](CO)NC(=O)[C@@H]2C[C@@H](O)CN2C(=O)[C@H](C(C)C)n2cc(-c3ccc(COc4c(-c5c(C)c(F)cc6[nH]ncc56)c(C5CC5)cc5c(N6C[C@@H]7C[C@H]6CN7)nc(OC6CCC7(CC6)COC7)nc45)cc3)nn2)cc1` [Example 63, (2S,4R)-1-((2S)-2-(4-(4-(((2-((2-oxaspiro[3.5]nonan-7-yl)oxy)-4-((1S,4S)-2,5-diazabicyclo[2.2.1]heptan-2-yl)-6-cyclopropyl-7-(6-fluoro-5-methyl-1H-indazol-4-yl)quinazolin-8-yl)oxy)methyl)phenyl)-1H-1,2,3-triazol-1-yl)-3-methylbutanoyl)-4-hydroxy-N—((R)-2-hydroxy-1-(4-(4-methylthiazol-5-yl)phenyl)ethyl)pyrrolidine-2-carboxamide], the IC50 (AsPC-1 cells) was < 10 nM and the DC50 (KRAS (G12D)) was < 10 nM.
Molecule `CO[C@@H](C)COc1nc(N2C[C@@H]3C[C@H]2CN3)c2cc(C3CC3)c(-c3c(C)c(F)cc4[nH]ncc34)c(OCc3ccc(-c4cn([C@H](C(=O)N5C[C@H](O)C[C@H]5C(=O)N[C@H](C#Cc5ccccc5Cl)CO)C(C)C)nn4)cc3)c2n1` [Example 64, (2S,4R)-1-((2S)-2-(4-(4-(((4-((1S,4S)-2,5-diazabicyclo[2.2.1]heptan-2-yl)-6-cyclopropyl-7-(6-fluoro-5-methyl-1H-indazol-4-yl)-2-((S)-2-methoxypropoxy)quinazolin-8-yl)oxy)methyl)phenyl)-1H-1,2,3-triazol-1-yl)-3-methylbutanoyl)-N—((R)-4-(2-chlorophenyl)-1-hydroxybut-3-yn-2-yl)-4-hydroxypyrrolidine-2-carboxamide] has an IC50 (AsPC-1 cells) of 10 to 100 nM and a DC50 (KRAS (G12D)) of 10 to 100 nM.
With `CCn1nccc1-c1ccc([C@H](CO)NC(=O)[C@@H]2C[C@@H](O)CN2C(=O)[C@H](C(C)C)n2cc(-c3ccc(COc4c(-c5c(C)c(F)cc6[nH]ncc56)c(C5CC5)cc5c(N6C[C@@H]7C[C@H]6CN7)nc(OCC6(C(F)F)CCOCC6)nc45)cc3)nn2)cc1` [Example 65, (2S,4R)-1-((2S)-2-(4-(4-(((4-((1S,4S)-2,5-diazabicyclo[2.2.1]heptan-2-yl)-6-cyclopropyl-2-((4-(difluoromethyl)tetrahydro-2H-pyran-4-yl)methoxy)-7-(6-fluoro-5-methyl-1H-indazol-4-yl)quinazolin-8-yl)oxy)methyl)phenyl)-1H-1,2,3-triazol-1-yl)-3-methylbutanoyl)-N—((R)-1-(4-(1-ethyl-1H-pyrazol-5-yl)phenyl)-2-hydroxyethyl)-4-hydroxypyrrolidine-2-carboxamide] the IC50 (AsPC-1 cells) was < 10 nM and the DC50 (KRAS (G12D)) was < 10 nM.
In the case of `CCn1nccc1-c1ccc([C@H](CO)NC(=O)[C@@H]2C[C@@H](O)CN2C(=O)[C@H](C(C)C)n2cc(-c3ccc(COc4c(-c5c(C)c(F)c(C)c6[nH]ncc56)c(C5CC5)cc5c(N6C[C@@H]7C[C@H]6CN7)nc(OC[C@H](C)OC)nc45)cc3)nn2)cc1` [Example 66, (2S,4R)-1-((2S)-2-(4-(4-(((4-((1S,4S)-2,5-diazabicyclo[2.2.1]heptan-2-yl)-6-cyclopropyl-7-(6-fluoro-5,7-dimethyl-1H-indazol-4-yl)-2-((S)-2-methoxypropoxy)quinazolin-8-yl)oxy)methyl)phenyl)-1H-1,2,3-triazol-1-yl)-3-methylbutanoyl)-N—((R)-1-(4-(1-ethyl-1H-pyrazol-5-yl)phenyl)-2-hydroxyethyl)-4-hydroxypyrrolidine-2-carboxamide], the IC50 (AsPC-1 cells) was < 10 nM and the DC50 (KRAS (G12D)) was < 10 nM.
`CO[C@@H](C)COc1nc(N2C[C@@H]3C[C@H]2CN3)c2cc(C3CC3)c(-c3c(C)c(F)cc4[nH]ncc34)c(OCc3ccc(-c4cn([C@H](C(=O)N5C[C@H](O)C[C@H]5C(=O)N[C@H](C#Cc5cc6scnc6s5)CO)C(C)C)nn4)cc3)c2n1` [Example 67, (2S,4R)-1-((2S)-2-(4-(4-(((4-((1S,4S)-2,5-diazabicyclo[2.2.1]heptan-2-yl)-6-cyclopropyl-7-(6-fluoro-5-methyl-1H-indazol-4-yl)-2-((S)-2-methoxypropoxy)quinazolin-8-yl)oxy)methyl)phenyl)-1H-1,2,3-triazol-1-yl)-3-methylbutanoyl)-4-hydroxy-N—((R)-1-hydroxy-4-(thieno[2,3-d]thiazol-5-yl)but-3-yn-2-yl)pyrrolidine-2-carboxamide] was tested, and the IC50 (AsPC-1 cells) was 10 to 100 nM and the DC50 (KRAS (G12D)) was 10 to 100 nM.
`CCn1nccc1-c1ccc([C@H](CO)NC(=O)[C@@H]2C[C@@H](O)CN2C(=O)[C@H](C(C)C)n2cc(-c3ccc(COc4c(-c5c(C)c(F)cc6[nH]ncc56)c(C5CCC5)cc5c(N6C[C@@H]7C[C@H]6CN7)nc(OC[C@H](C)OC)nc45)cc3)nn2)cc1` [Example 68, (2S,4R)-1-((2S)-2-(4-(4-(((4-((1S,4S)-2,5-diazabicyclo[2.2.1]heptan-2-yl)-6-cyclobutyl-7-(6-fluoro-5-methyl-1H-indazol-4-yl)-2-((S)-2-methoxypropoxy)quinazolin-8-yl)oxy)methyl)phenyl)-1H-1,2,3-triazol-1-yl)-3-methylbutanoyl)-N—((R)-1-(4-(1-ethyl-1H-pyrazol-5-yl)phenyl)-2-hydroxyethyl)-4-hydroxypyrrolidine-2-carboxamide] was tested, and the IC50 (AsPC-1 cells) was < 10 nM and the DC50 (KRAS (G12D)) was < 10 nM.
In the case of `CCn1nccc1-c1ccc([C@H](CO)NC(=O)[C@@H]2C[C@@H](O)CN2C(=O)[C@H](C(C)C)n2cc(-c3ccc(COc4c(-c5c(C)c(F)cc6[nH]ncc56)c(C5CC5)cc5c(N6C[C@@H]7C[C@H]6CN7)nc(OC6CC7(COC7)C6)nc45)cc3)nn2)cc1` [Example 69, (2S,4R)-1-((2S)-2-(4-(4-(((2-((2-oxaspiro[3.3]heptan-6-yl)oxy)-4-((1S,4S)-2,5-diazabicyclo[2.2.1]heptan-2-yl)-6-cyclopropyl-7-(6-fluoro-5-methyl-1H-indazol-4-yl)quinazolin-8-yl)oxy)methyl)phenyl)-1H-1,2,3-triazol-1-yl)-3-methylbutanoyl)-N—((R)-1-(4-(1-ethyl-1H-pyrazol-5-yl)phenyl)-2-hydroxyethyl)-4-hydroxypyrrolidine-2-carboxamide], the IC50 (AsPC-1 cells) was < 10 nM and the DC50 (KRAS (G12D)) was < 10 nM.
For `CCn1nccc1-c1ccc([C@H](CO)NC(=O)[C@@H]2C[C@@H](O)CN2C(=O)[C@H](C(C)C)n2cc(-c3ccc(COc4c(-c5c(C)c(F)cc6[nH]ncc56)c(C5CC5)cc5c(N6C[C@@H]7C[C@H]6CN7)nc(OC6CCC(OC)CC6)nc45)cc3)nn2)cc1` (stereo partly drawn) [Example 70, (2S,4R)-1-((2S)-2-(4-(4-(((4-((1S,4S)-2,5-diazabicyclo[2.2.1]heptan-2-yl)-6-cyclopropyl-7-(6-fluoro-5-methyl-1H-indazol-4-yl)-2-((4-methoxycyclohexyl)oxy)quinazolin-8-yl)oxy)methyl)phenyl)-1H-1,2,3-triazol-1-yl)-3-methylbutanoyl)-N—((R)-1-(4-(1-ethyl-1H-pyrazol-5-yl)phenyl)-2-hydroxyethyl)-4-hydroxypyrrolidine-2-carboxamide], the IC50 (AsPC-1 cells) was < 10 nM and the DC50 (KRAS (G12D)) was < 10 nM.
